Measured values taken from article PMC5863496, “Mesobuthus Venom-Derived Antimicrobial Peptides Possess Intrinsic Multifunctionality and Differential Potential as Drugs” (Frontiers in Microbiology, 2018).
Ends that are not written are not given here.

Assays:
Assay in all cases: Inhibition-zone assay (CL)
Format in all cases: cell-based
[1] = test system: Bacillus megaterium CGMCC 1.0459; details: BM CGMCC 1.0459, N.A. = no activity at 0.8 nmol peptide each well
Description: (§1) The antimicrobial activity of seven peptides, including MeuFSPL-1, MeuFSPL-2, Marmelittin, Melittin, Meucin-22, Marcin-22, and MeuTXKβ1, was evaluated by the inhibition-zone assay previously described in our studies (Hultmark, [1998]; Zhu et al., [2012a]; Zhu and Gao, [2014]). Temperatures used were 30 or 37°C for bacteria or 28°C for fungi. Media used were Luria-Bertani (LB) Broth (10 g tryptone, 5 g yeast extract, and 5 g NaCl in 1 l of water) or Nutrient Broth (10 g peptone, 5 g beef extract powder, and 5 g NaCl in 1 l of water) or GYM(Isp2) (4 g yeast extract, 10 g malt extract, 4 g glucose, 2 g CaCO3 in 1 l of water) for bacteria or Potato Dextrose Broth (200 g patato and 20 g glucose in 1 l of water) for fungi. To make plates, 10 μl of microbial culture (~2 × 10^6 bacterial cells or fungal spores/ml) were mixed in 6 ml of medium containing 0.8% agar and poured into Peri dishes of 9.0 cm diameter. Wells with a diameter of 2 mm were punched into the medium, filled with 2 μl of sample each well. In this assay, three different doses of peptides were applied to three independent wells in one standard bacterial plate. After incubation overnight, inhibition zones were measured and used to calculate lethal concentrations (CL), a concentration just sufficient to inhibit bacterial growth (Hultmark, [1998]; Gao et al., [2009]). CL values are calculated from a plot of d^2 against log n, where d is the diameter (in cm) and n is the amount of sample applied in the well (in nmol). The plot is linear and thus CL can be calculated from the slope (k) and the intercept (m) of this plot. The formula used here is CL = 2.93/ak10^m/k, where “a” is the thickness of the bacterial plate and “CL” is in μM.

[2] = test system: Bacillus subtilis CGMCC 1.2428; details: BS CGMCC 1.2428, N.A. = no activity at 0.8 nmol peptide each well
Description: as §1

[3] = test system: Escherichia coli ATCC 25922; details: EC ATCC 25922, N.A. = no activity at 0.8 nmol peptide each well
Description: as §1

[4] = test system: Escherichia coli Am. J16c; details: EC Am. J16c, N.A. = no activity at 0.8 nmol peptide each well
Description: as §1

[5] = test system: Escherichia coli Am. J23a; details: EC Am. J23a, N.A. = no activity at 0.8 nmol peptide each well
Description: as §1

[6] = test system: Escherichia coli CIP. J14b; details: EC CIP. J14b, N.A. = no activity at 0.8 nmol peptide each well
Description: as §1

Escherichia coli D. G2b = details: EC D. G2b, N.A. = no activity at 0.8 nmol peptide each well
Description: as §1

[7] = test system: Micrococcus luteus CGMCC 1.0290; details: ML CGMCC 1.0290, N.A. = no activity at 0.8 nmol peptide each well
Description: as §1

[8] = test system: Pseudomonas aeruginosa QT1; details: PA QT1, N.A. = no activity at 0.8 nmol peptide each well
Description: as §1

[9] = test system: Staphylococcus aureus J685; details: SA J685, N.A. = no activity at 0.8 nmol peptide each well
Description: as §1

[10] = test system: Staphylococcus aureus J698; details: SA J698, N.A. = no activity at 0.8 nmol peptide each well
Description: as §1

[11] = test system: Staphylococcus aureus J700; details: SA J700, N.A. = no activity at 0.8 nmol peptide each well
Description: as §1

[12] = test system: Staphylococcus warneri ATCC 1.2824; details: SW ATCC 1.2824, N.A. = no activity at 0.8 nmol peptide each well
Description: as §1

[13] = test system: Stenotrophomonas maltophilia CGMCC 1.1788; details: SMAL CGMCC 1.1788, N.A. = no activity at 0.8 nmol peptide each well
Description: as §1

[14] = test system: Streptococcus mutans ATCC 1.2499; details: SM ATCC 1.2499, N.A. = no activity at 0.8 nmol peptide each well
Description: as §1

[15] = test system: Streptococcus salivarius ATCC 1.2498; details: SSAL ATCC 1.2498, N.A. = no activity at 0.8 nmol peptide each well
Description: as §1

[16] = test system: Streptococcus sanguinis ATCC 1.2497; details: SSAN ATCC 1.2497, N.A. = no activity at 0.8 nmol peptide each well
Description: as §1

[17] = test system: methicillin-resistant Staphylococcus aureus P1374; details: MRSA P1374, N.A. = no activity at 0.8 nmol peptide each well
Description: as §1

[18] = test system: methicillin-resistant Staphylococcus aureus P1386; details: MRSA P1386, N.A. = no activity at 0.8 nmol peptide each well
Description: as §1

[19] = test system: methicillin-resistant coagulase-negative Staphylococcus P1369; details: MRCNS P1369, N.A. = no activity at 0.8 nmol peptide each well
Description: as §1

[20] = test system: methicillin-sensitive Staphylococcus aureus CGMCC 1.89; details: MSSA CGMCC 1.89, N.A. = no activity at 0.8 nmol peptide each well
Description: as §1

[21] = test system: penicillin-resistant Staphylococcus aureus P1383; details: PRSA P1383; inhibition-zone assay; N.A. = no activity at 0.8 nmol peptide each well
Description: as §1

[22] = test system: penicillin-resistant Staphylococcus epidermidis P1389; details: PRSE P1389, N.A. = no activity at 0.8 nmol peptide each well
Description: as §1

[23] = test system: penicillin-sensitive Staphylococcus epidermidis P1111; details: PSSE P1111, N.A. = no activity at 0.8 nmol peptide each well
Description: as §1

Row | Substance | Lethal concentration (CL) [1] [µM] | Lethal concentration (CL) [2] [µM] | Lethal concentration (CL) [3] [µM] | Lethal concentration (CL) [4] [µM] | Lethal concentration (CL) [5] [µM] | Lethal concentration (CL) [6] [µM] | Lethal concentration (CL) (Escherichia coli D. G2b) [µM] | Lethal concentration (CL) [7] [µM] | Lethal concentration (CL) [8] [µM] | Lethal concentration (CL) [9] [µM] | Lethal concentration (CL) [10] [µM] | Lethal concentration (CL) [11] [µM] | Lethal concentration (CL) [12] [µM] | Lethal concentration (CL) [13] [µM] | Lethal concentration (CL) [14] [µM] | Lethal concentration (CL) [15] [µM] | Lethal concentration (CL) [16] [µM] | Lethal concentration (CL) [17] [µM] | Lethal concentration (CL) [18] [µM] | Lethal concentration (CL) [19] [µM] | further results
1 | FFGHLFKLATKIIPSLFQRKKE [MUC-22] | 3.72 | 1.86 | 7.95 | 7.49 | 7.36 | 11.65 | 9.93 | 2.71 | 6.10 | 2.66 | 2.66 | 2.66 | 3.76 | 3.79 | 2.39 | 4.22 | 3.37 | 0.87 | 1.88 | 2.21 | Lethal concentration (CL) [20]: 1.35 µM; Lethal concentration (CL) [21]: 0.87 µM; Lethal concentration (CL) [22]: 0.56 µM; Lethal concentration (CL) [23]: 1.61 µM
2 | FLFSLIPSAISGLISAFKGRRKRDLN-NH2 [MarMEL] | 2.86 | 3.13 | 6.41 | 7.75 | 4.69 | 8.41 | 6.24 | 1.85 | 14.29 | 8.41 | 6.24 | 10.86 | 0.18 | 4.14 | 2.85 | 4.70 | 4.70 | 2.60 | 8.11 | 3.01 | Lethal concentration (CL) [20]: 4.87 µM; Lethal concentration (CL) [21]: 2.35 µM; Lethal concentration (CL) [22]: 3.12 µM; Lethal concentration (CL) [23]: 4.24 µM
